# Measured values: patent publication US20250089717A1, “FUNGICIDAL HALOMETHYL KETONES, HYDRATES AND ENOL ETHERS AND THEIR MIXTURES” (FMC CORPORATION, priority 2023, published 2025)
# Test system: Phakopsora pachyrhizi
# Assay: Test A: preventive spray on soybean seedlings, Asian soybean rust, visual disease rating
# Format: in vivo
# Details: rate 10 ppm
# From the text: General protocol for preparing test suspensions for Test A: the test compounds were first dissolved in acetone in an amount equal to 3% of the final volume and then suspended at the desired concentration (in ppm) in acetone and purified water (50/50 mix by volume) containing 250 ppm of the surfactant PEG400 (polyhydric alcohol esters). The resulting test suspensions were then used in Test A.
# The test solution was sprayed to the point of run-off on soybean seedlings. The following day the seedlings were inoculated with a spore suspension of Phakopsora pachyrhizi (the causal agent of Asian soybean rust) and incubated in a saturated atmosphere at 22° C. for 24 h and then moved to a growth chamber at 22° C. for 8 days, after which time visual disease ratings were made.
# A rating of 100 indicates 100% disease control and a rating of 0 indicates no disease control (relative to the controls).
row,SMILES,"Test A rating (100 = 100% disease control, 0 = no disease control relative to the controls) [%]"
1,CCO/C(=C\Oc1ccc(Cn2cc(C(=O)NOCC(F)(F)F)cn2)c(F)c1F)C(F)(F)F [Compound 79],100
2,CCO/C(=C\Oc1ccc(Cn2cc(C(=O)NOCC3CC3)cn2)c(F)c1F)C(F)(F)F [Compound 80],100
3,CCO/C(=C\Oc1ccc(Cn2cc(C(=O)NOCC#N)cn2)c(F)c1)C(F)(F)F [Compound 81],100
4,CCO/C(=C\Oc1ccc(Cn2cc(C(=O)NOCC3CC3)cn2)c(F)c1)C(F)(F)F [Compound 82],100
5,C=CCONC(=O)c1cn(Cc2ccc(O/C=C(\OCC)C(F)(F)F)cc2)nn1 [Compound 83],99
6,C=C=CC(=O)NCc1cnn(Cc2ccc(OCC3(C(F)(F)F)OCCO3)cc2)c1 [Compound 84],99
7,CCOC(=O)OCc1cnn(Cc2ccc(OCC3(C(F)(F)F)OCCO3)cc2)c1 [Compound 85],86
8,"C#CCONC(=O)c1cccc(Cc2ccc(O/C=C(\OCC)C(F)(F)F)cc2)n1 [Compound 125, 2-[[4-1[[(1Z)-2-ethoxy-3,3,3-trifluoro-1-propen-1-yl]oxy]phenyl]methyl]-N-(2-propyn-1-yloxy)-6-pyridinecarboxamide]",100
9,"CCO/C(=C\Oc1ccc(Cc2cccc(C(=O)NOCC(F)(F)F)n2)cc1)C(F)(F)F [Compound 127, 2-[[4-1[[(1Z)-2-ethoxy-3,3,3-trifluoro-1-propen-1-yl]oxy]phenyl]methyl]-N-(2,2,2-trifluoroethoxy)-6-pyridinecarboxamide]",99
10,"C#CCONC(=O)c1cc(Cc2ccc(O/C=C(\OCC)C(F)(F)F)cc2)ccn1 [Compound 131, 4-[[4-1[[(1Z)-2-ethoxy-3,3,3-trifluoro-1-propen-1-yl]oxy]phenyl]methyl]-N-(2-propyn-1-yloxy)-2-pyridinecarboxamide]",100
11,"CCO/C(=C\Oc1ccc(Cc2ccnc(C(=O)NOCC3CC3)c2)cc1)C(F)(F)F [Compound 132, 4-[[4-1[[(1Z)-2-ethoxy-3,3,3-trifluoro-1-propen-1-yl]oxy]phenyl]methyl]-N-(cyclopropylmethoxy)-2-pyridinecarboxamide]",100
12,"CCO/C(=C\Oc1ccc(Cc2ccnc(C(=O)NOCC(F)(F)F)c2)cc1)C(F)(F)F [Compound 133, 4-[[4-1[[(1Z)-2-ethoxy-3,3,3-trifluoro-1-propen-1-yl]oxy]phenyl]methyl]-N-(2,2,2-trifluoroethoxy)-2-pyridinecarboxamide]",100
13,CCO/C(=C\Oc1ccc(Cn2cc(CC(=O)OCC3CC3)cn2)cc1)C(F)(F)F [compound 13],96

# Same assay, conditions: rate 10 ppm, read-out: Test A rating (100 = 100% disease control, 0 = no disease control relative to the controls)
row,SMILES,pest or weed control at 10 ppm [%]
1,"C=CCON(C)C(=O)c1cccc(Cc2ccc(O/C=C(\OCC)C(F)(F)F)cc2)n1 [Compound 108, 2-[[4-[[(1Z)-2-ethoxy-3,3,3-trifluoro-1-propen-1-yl]oxy]phenyl]methyl]-N-methyl-N-(2-propen-1-yloxy)-6-pyridinecarboxamide]",100
2,"C=CCONC(=O)c1cccc(Cc2ccc(O/C=C(\OCC)C(F)(F)F)cc2)n1 [Compound 109, 2-[[4-[[(1Z)-2-ethoxy-3,3,3-trifluoro-1-propen-1-yl]oxy]phenyl]methyl]-N-(2-propen-1-yloxy)-6-pyridinecarboxamide]",100
3,"C=CCON(CC)C(=O)c1cc(Cc2ccc(O/C=C(\OCC)C(F)(F)F)cc2)ccn1 [Compound 119, 4-[[4-[[(1Z)-2-ethoxy-3,3,3-trifluoro-1-propen-1-yl]oxy]phenyl]methyl]-N-ethyl-N-(2-propen-1-yloxy)-2-pyridinecarboxamide]",100
4,"CCO/C(=C\Oc1ccc(Cc2cccc(C(=O)N(C)OCC(F)(F)F)n2)cc1)C(F)(F)F [Compound 120, 2-[[4-[[(1Z)-2-ethoxy-3,3,3-trifluoro-1-propen-1-yl]oxy]phenyl]methyl]-N-(2,2,2-trifluoroethoxy)-N-methyl-6-pyridinecarboxamide]",100
5,"C#CCON(C)C(=O)c1cccc(Cc2ccc(O/C=C(\OCC)C(F)(F)F)cc2)n1 [Compound 121, 2-[[4-[[(1Z)-2-ethoxy-3,3,3-trifluoro-1-propen-1-yl]oxy]phenyl]methyl]-N-methyl-N-(2-propyn-1-yloxy)-6-pyridinecarboxamide]",100
6,"CCO/C(=C\Oc1ccc(Cc2cccc(C(=O)N(C)OCC3CC3)n2)cc1)C(F)(F)F [Compound 123, 2-[[4-[[(1Z)-2-ethoxy-3,3,3-trifluoro-1-propen-1-yl]oxy]phenyl]methyl]-N-(cyclopropylmethoxy)-N-methyl-6-pyridinecarboxamide]",100
7,"CCO/C(=C\Oc1ccc(Cc2cccc(C(=O)NOCC3CC3)n2)cc1)C(F)(F)F [Compound 124, 2-[[4-[[(1Z)-2-ethoxy-3,3,3-trifluoro-1-propen-1-yl]oxy]phenyl]methyl]-N-(cyclopropylmethoxy)-6-pyridinecarboxamide]",100

# Same assay, conditions: rate 50 ppm
row,SMILES,"Test A rating (100 = 100% disease control, 0 = no disease control relative to the controls) [%]"
1,COCC(=O)OCc1cnn(Cc2ccc(OCC3(C(F)(F)F)OCCO3)cc2)c1 [Compound 86],100
2,COCCC(=O)OCc1cnn(Cc2ccc(OCC3(C(F)(F)F)OCCO3)cc2)c1 [Compound 87],100
3,O=C(CC1CC1)OCc1cnn(Cc2ccc(OCC3(C(F)(F)F)OCCO3)cc2)c1 [Compound 88],100
4,C=CCC(=O)OCc1cnn(Cc2ccc(OCC3(C(F)(F)F)OCCO3)cc2)c1 [Compound 89],100
5,CC(=O)OCc1cnn(Cc2ccc(OCC3(C(F)(F)F)OCCO3)cc2)c1 [Compound 90],100
6,CCOC(=O)C(=O)OCc1cnn(Cc2ccc(OCC3(C(F)(F)F)OCCO3)cc2)c1 [Compound 91],100
7,CC(C)CC(=O)OCc1cnn(Cc2ccc(OCC3(C(F)(F)F)OCCO3)cc2)c1 [Compound 92],100
8,O=C(CC(F)(F)F)OCc1cnn(Cc2ccc(OCC3(C(F)(F)F)OCCO3)cc2)c1 [Compound 93],100
9,C#CCOCc1cnn(Cc2ccc(OCC3(C(F)(F)F)OCCO3)cc2)c1 [Compound 94],100
10,CCO/C(=C\Oc1ccc(Cn2cc(COC(=O)N(C)C)cn2)cc1)C(F)(F)F [compound 8],60
